From US20180310552A1, “Composition comprising a safener, a fungicide and metalaxyl” (priority 2015, published 2018)

Experiments:
Fusarium culmorum [1] = experiment: Fusarium culmorum (wheat)/seed treatment, greenhouse, 7 days at 20° C.; type: in vivo; settings: seed treatment
Source text: (§1) According to another aspect of the present invention, in the composition according to the invention, the compound ratio A/B, A/C or A/B/C may be advantageously chosen so as to produce a synergistic effect. A synergistic effect of fungicides is always present when the fungicidal activity of the active compound combinations exceeds the total of the activities of the active compounds when applied individually. The expected activity for a given combination of two or three active compounds can be calculated as follows (cf. Colby, S. R., “Calculating Synergistic and Antagonistic Responses of Herbicide Combinations”, Weeds 1967, 15, 20-22).
(§2) wherein • X denotes the efficacy when using active compound A at an application rate of m ppm (or g/ha), • Y denotes the efficacy when using active compound B (or C) at an application rate of n ppm (or g/ha), • Z denotes the efficacy when using active compound C at an application rate of r ppm (or g/ha), • E1 denotes the efficacy when using active compounds A and B at application rates of m and n ppm (or g/ha), and • E2 denotes the efficacy when using active compounds A and B and C at application rates of m and n and r ppm (or g/ha),
(§3) Here, the efficacy is determined in %. 0% means an efficacy which corresponds to that of the control, whereas an efficacy of 100% means that no infection is observed.
(§4) If the actual fungicidal action exceeds the calculated value, the action of the combination is superadditive, i.e. a synergistic effect is present. In this case, the actually observed efficacy must exceed the value calculated using the above formula for the expected efficacy (E1 or E2).
(§5) The test is performed under greenhouse conditions.
(§6) Active compounds solved in N-methyl-2-pyrrolidon, or combinations thereof were diluted with water to the desired dosages. Wheat seeds were treated with these preparations and sown in 7×7 cm pots filled with 1:1 mix of steamed field soil and sand, mixed with a wheat grain culture of Fusarium culmorum.
Pots were incubated in the greenhouse for 7 days at 20° C. […]

Fusarium culmorum [2] = experiment: Fusarium culmorum (wheat)/seed treatment, greenhouse, 7 days at 15° C. (Example 5); type: in vivo; settings: seed treatment
Source text: as §1, §2, §3, §4, §5
as §6, with “Commercially available disease control agents, active” for “Active”, “6*6” for “7×7”, “containing 4 cm of a” for “filled with”
Pots were incubated in the greenhouse for 7 days at 15° C.
Assessment consisted of counting of emerged seedlings and diseased plants. 0% means an efficacy which corresponds to that of the untreated control (infection rate was 73%), while an efficacy of 100% means that all seedlings have emerged and are healthy.

`COCC(=O)N(c1c(C)cccc1C)C(C)C(=O)OC` (racemic) [Metalaxyl, methylN-(2,6-dimethylphenyl)-N-(methoxyacetyl)-DL-alaninate] was tested, and the Efficacy in % (Fusarium culmorum [1]; 6 g a.i./dt) was 0% and the Efficacy in % (Fusarium culmorum [2]; 2 g a.i./kg seed) was 18%.

`OC(Cc1ccccc1Cl)(Cn1[nH]cnc1=S)C1(Cl)CC1` (stereo not shown) [Prothioconazole, 2-[2-(1-chlorocyclopropyl)-3-(2-chlorophenyl)-2-hydroxypropyl]-1,2-dihydro-3H-1,2,4-triazole-3-thione] was tested, and the Efficacy in % (Fusarium culmorum [1]; 16 g a.i./dt) was 45% and the Efficacy in % (Fusarium culmorum [2]; 15 g a.i./kg seed) was 64%.

With `CCOC(=O)C1=NN(c2ccc(Cl)cc2Cl)C(C)(C(=O)OCC)C1` (racemic) [Mefenpyr-diethyl, diethyl (RS)-1-(2,4-dichlorophenyl)-5-methyl-2-pyrazoline-3,5-dicarboxylate] the Efficacy in % (Fusarium culmorum [1]; 60 g a.i./dt) was 9%, the Efficacy in % (Fusarium culmorum [2]; 25 g a.i./kg seed) was 9% and the Efficacy in % (Fusarium culmorum [2]; 50 g a.i./kg seed) was 0%.
